test system: white blood cells; experiment: Immune cell selective uptake (immune selectivity ratio) in blood cell preparations; format: cell-based, mammalian; set-up: key: Y: Compounds exhibiting high uptake; N: similar structures that do not; settings: uptake in white cells from blood cell mix; Y/N
Procedure: Freshly drawn heparinised blood or buffy coat preparations are used for the determination of immune cell partition ratios. Buffy coat preparations are preferred. These may be obtained from donor blood by simple centrifugation of whole blood (4795 g for 10 minutes). Following centrifugation, plasma is collected from the surface, after which immune cells are expressed from the donor bags along with the erythrocytes lying immediately below the leukocyte layer. This ensures high yields and a sufficient population of erythrocytes for partition. 5 ml of the resulting cell suspension are dispensed into T25 culture flasks. Substrates are added to a final concentration between 1 and 10 μM and the suspensions incubated at 37° C., in a 5% CO2 atmosphere. For analysis of uptake kinetics, samples are withdrawn at 0, 2, 5, 10, 30, 60, 90, 180, or 240 min after substrate addition. For screening purposes, samples are taken at 0 and 120 minutes.
Cell fractions were prepared using density gradient centrifugation. Mononuclear cells and polymorphonuclear cells are separated from erythrocytes essentially by layering the cell suspension on a viscous medium typically composed of a solution containing Ficoll or similar (commercial suppliers include: Lymphoprep, Axis Shield, 1031966; Lymphoflot HLA, 824010; or PMN Separation Medium Robbins Scientific 1068-00-0). The layered suspension is then centrifuged at 600 g, 20 min, after which the cell fractions and the plasma (incubation medium) fraction are removed by gentle aspiration, washed twice in PBS buffer, followed by estimation of the cell number and pellet volume.
Uptake of fluorescent compounds is monitored using fluorescence microscopy. Excitation and emission wavelengths depend of the fluorescence label in use. A typical label is a methoxy coumarin for which the appropriate wavelengths are 360 and 450 nm respectively. Fluorescent analogs of the compounds under study permit the estimation of appropriate uptake intervals as well as the likely intracellular distribution of the compounds. Fluorescent analogs also allow the estimation of losses in washing or other cell manipulations.
Cell preparations are lysed in water and the debris sedimented at 16100 g, 10 min. The supernatant is recovered and sub-sampled for protein and DNA content. Protein in the supernatant is precipitated by bringing the solution to […] ethanol and centrifuging again at 16100 g, 10 min.
Compound uptake is normalized according to cytoplasmic volume of cells in order to obtain the average concentration in the cells. Cell volume is estimated by correlation of DNA, protein or haem content of lysed cell aliquots to cell number and packed volume prior to lysis.
Cell lysates are analysed using a HP 1100 HPLC System (Agilent Technologies, Waldbronn, Germany) with a Kromasil 3.5μ C18, 50×2.0 mm column and guard cartridge system (both, Phenomenex, Aschaffenburg, Germany) run at 30° C. A gradient elution was performed using water, 0.05% formic acid (A) and acetonitrile 0.05% formic acid (B) (0 min. 5% B, 2.5 min 5% B, 2.8 min 40% B, 10.5 min 85% B, 12.0 min 95% B, 16.5 min 95% B) at a flow rate of 300 μl/min. Re-equilibration of column was at 5% B, at a flow rate of 750 μl/min for 2.4 min. The HPLC-eluate from retention time 0.0 min to 2.5 min was directed directly to waste. Detection was via a UV cell at 214 nm followed by a ⅙ split to an An API-qTOF 1 (Micromass, Manchester, UK) mass spectrometer, (calibrated daily using a mixture of NaI, RbI and CsI). The mass spectrometer is routinely operated in the positive electrospray ionization mode using the following settings: Capillary voltage 4000 V; cone voltage 30 V; RF Lens offset 0.38 V; source block temperature 80° C.; desolvation gas temperature 140° C.; desolvation gas 240 l/h; LM/HM Resolution 0.0; Collision energy 4.0 V; Ion energy 5.0 V.
Masses are monitored according to the known or expected M/Z ratios. […]

SMILES | Concentrative uptake
CC(C)(C)OC(=O)NC(CSCC(=O)NCCNc1cccc2c(S(=O)(=O)O)cccc12)C(=O)O (stereo not drawn) [Compound 8] | Y
CN(C)c1cccc2c(S(=O)(=O)NN3CCN(CCO)CC3)cccc12 [Compound 26] | Y
CN(C)c1cccc2c(S(=O)(=O)Nc3c[nH]c(=O)[nH]c3=O)cccc12 [Compound 34] | N
COc1cc2oc(=O)cc(CC(NC(=O)CN)C(=O)O)c2cc1OC (stereo not drawn) [Compound 10] | N
COc1ccc2c(CSc3ncnc4[nH]cnc34)cc(=O)oc2c1 [Compound 9] | N
CN(C)c1cccc2c(S(=O)(=O)N3CCN(c4ccc(O)cc4)CC3)cccc12 [Compound 30] | N
COc1cc(C)c(/C(=C\C(C)=O)CC(N)C(=O)O)cc1OC (stereo not drawn) [Compound 4] | Y
COc1cc(C)c(/C(=C\C(C)=O)CC(NC(=O)CCN)C(=O)O)cc1OC (stereo not drawn) [Compound 12] | N
CN(C)c1cccc2c(S(=O)(=O)NNC(=N)N)cccc12 [Compound 11] | N
CN(C)c1cccc2c(S(=O)(=O)N3CCN(CCO)CC3)cccc12 [Compound 31] | N
CCN(CC)c1ccc(NS(=O)(=O)c2cccc3c(N(C)C)cccc23)cc1 [Compound 36] | N
CN(C)c1cccc2c(S(=O)(=O)Nc3cc(O)[nH]n3)cccc12 [Compound 27] | Y
CN(C)c1cccc2c(S(=O)(=O)NCCCN3CCCC3=O)cccc12 [Compound 37] | N
O=c1ccc2cc(O[C@@H]3O[C@H](CO)C(O)[C@H](O)C3O)c(O)cc2o1 (stereo partly drawn) [Compound 1] | Y
CC[C@H]1OC(=O)[C@H](C)[C@@H](O[C@H]2C[C@@](C)(OC)[C@@H](O)[C@H](C)O2)[C@H](C)[C@@H](OC2O[C@H](C)C[C@H](N(C)C)[C@H]2O)[C@](C)(O)C[C@@H](C)CN(Cc2cc(=O)oc3cc(OC)ccc23)[C@H](C)[C@@H](O)[C@]1(C)O (stereo partly drawn) [Compound 7] | Y
Cc1cc(=O)oc2cc(SCC(=O)NCCN3CCOCC3)ccc12 [Compound 23] | Y
COc1ccc(/C(=C\C(C)=O)CSc2nnc(-c3ccc([NH+]([O-])O)o3)s2)c(C)c1 (stereo not drawn) [Compound 38] | N
Cc1cc(=O)oc2cc(SCC(=O)NN3CCN(CCO)CC3)ccc12 [Compound 24] | N
COc1cc(C)c(/C(=C\C(C)=O)CC(NC(=O)C(N)CCC(=O)O)C(=O)O)cc1OC (stereo not drawn) [Compound 14] | N
CN(C)c1cccc2c(S(=O)(=O)NC(C)(CO)CO)cccc12 [Compound 32] | N
Cc1cc(=O)oc2cc(SCC(=O)NC3CCOC3=O)ccc12 (stereo not drawn) [Compound 22] | Y
COC(=O)C1CN(S(=O)(=O)c2cccc3c(N(C)C)cccc23)CCC1=O (stereo not drawn) [Compound 29] | N
CN(C)c1cccc2c(S(=O)(=O)N(CCO)CCO)cccc12 [Compound 33] | N
CN(C)c1cccc2c(S(=O)(=O)Nc3ccc(C(=O)O)cc3O)cccc12 [Compound 35] | N
Cc1cc(=O)oc2cc(SCC(=O)NN3CCOCC3)ccc12 [Compound 25] | N
CC[C@H]1OC(=O)[C@H](C)[C@@H](OC2C[C@@](C)(OC)[C@@H](O)[C@H](C)O2)[C@H](C)[C@@H](OC2O[C@H](C)C[C@H](N(C)C)[C@H]2O)[C@](C)(O)C[C@@H](C)/C(=N/OCc2cc(=O)oc3cc(OC)c(OC)cc23)[C@H](C)[C@@H](O)[C@]1(C)O (stereo partly drawn) [Compound 3] | Y
O=C(CSc1ncnc2[nH]cnc12)NCCNc1cccc2c(S(=O)(=O)O)cccc12 [Compound 15] | Y

test system: E. coli (DH5α); experiment: Antibiotic activity testing (TC50, dilution assay); format: cell-based; settings: concentration that inhibits 50% of growth, turbidity OD600
Procedure: The TC50 or MIC procedure for antibiotic sensitivity testing involves an antibiotic dilution assay, which can be performed in microtitre plates. A series of twofold dilutions of each antibiotic are made in the wells, and then all wells are inoculated with a standard amount of the same test organism. After incubation, growth in the presence of the various antibiotics is observed by measuring turbidity.
Bacteria: B. pumilus and E. coli (DH5α)
Bacterial cultures are initiated from the plates for 2 to 3 weeks. After this time period bacteria are streaked out on new plates from the backups stored at −80° C. Due to the lack of resistance of the bacteria, new cultures are not to be initiated from an old plate or any liquid cultures derived from old plates.
Growth medium (GM)(per liter): 10 g Bacto-tryptone, 5 g Bacto-yeast extract, 6 g HEPES (25 mM), 5.4 g NaCl, pH 7.3
Compound stocks 10 or 100 mM in DMSO stored at −20° C.
1. Grow B.pumilus from an LB agar plate in a flask (max. 10% volume) up to about 50 ml in growth medium (GM)
2. Dilute overnight suspension 1:10 in GM
3. Determine OD600 of diluted bacterial suspension
4. Dilute bacterial suspension in GM to an OD600 of 0.03-0.04. (6 ml/plate)
5. Add 200 μl GM to the outer wells (Row A, Row H, Column 1, Column 12)
6. Add 100 μl GM to each well starting from C2, row 3.
7. Controls: Wells B2-B4 growth control. Wells B6-B8 blank. Row C growth inhibition control. • 7.1. To wells B2-B4 add: 96 μl GM, 4 μl DMSO, and 100 μl bacterial suspension adjusted to an OD600 of 0.03-0.04. • 7.2. To wells B6-B8 add: 196 μl GM and 4 μl DMSO • 7.3. Dilute a 10 mM COMPOUND 43 (positive control) stock to 800 μM (120 μl/plate) in GM. Add 100 μl of 800 μM COMPOUND 43 solution to well C2.
8. Samples • 8.1. Dilute the 10 or 100 mM stock solutions to 800 μM (250 μl/plate) in GM. • 8.2. Add 100 μl of 800 μM sample in duplicates to wells D2/E2 resp. F2/G2. • 8.3. 2-fold serial dilution of all samples and Azithromycin • 8.3.1. Rows C-G, Columns 2: Mix and transfer 100 μl from each row to Column 3, and continue until column 11. […]
11. Determine OD600 on plate reader.

SMILES | TC50 in E. coli
CC[C@H]1OC(=O)[C@H](C)[C@@H](O[C@H]2C[C@@](C)(OC)[C@@H](O)[C@H](C)O2)[C@H](C)[C@@H](O[C@@H]2O[C@H](C)CC(N(C)C(=O)CN(C)CCO)[C@H]2O)[C@](C)(O)C[C@@H](C)CN(C)[C@H](C)[C@@H](O)[C@]1(C)O (stereo partly drawn) [COMPOUND 45] | >50 µM
CC[C@H]1OC(=O)[C@H](C)C(=O)[C@H](C)[C@@H](O[C@@H]2O[C@H](C)C[C@H](N(C)C)[C@H]2OC(=O)Cc2ccccc2Nc2c(Cl)cccc2Cl)[C@](C)(O)C[C@@H](C)CN(C)[C@H](C)[C@@H](O)[C@]1(C)O [COMPOUND 53] | >50 µM
CC[C@H]1OC(=O)[C@H](C)[C@@H](O[C@H]2C[C@@](C)(OC)[C@@H](O)[C@H](C)O2)[C@H](C)[C@@H](O[C@@H]2O[C@H](C)C[C@H](N(C)C)[C@H]2O)[C@](C)(O)C[C@@H](C)CN(C)[C@H](C)[C@@H](O)[C@]1(C)O [COMPOUND 43, 9a-aza-9a-methyl-9-deoxo-9a-homoerythromycin A, reference compound] | 2.3 µM
